Test results as given in patent US5916889A, “1,4-disubstituted piperazines” (Novo Nordisk A/S, priority 1996, dated 1999).

Tested on: histamine induced paw oedema
Experiment: Histamine induced paw oedema test (rat)
Assay type: in vivo, rat (male Sprague-Dawley)
Settings: 1.0 mg/kg, intraperitoneally 15 minutes before the anaesthetics, paw swelling 20 minutes after histamine (50 microliter, 3 mg/ml)
Method: Compounds of formula I may be used to treat all painful, hyperalgesic and/or inflammatory conditions in which C-fibres play a pathophysiological role by eliciting neurogenic pain or inflammation, i.e.:
I. Histamine induced paw oedema
The rat histamine paw oedema test was performed essentially as described by Amann et al. (Europ. J. Pharmacol. 279, 227-231, 1995). In brief 250-300 g male Sprague-Dawley rats were anaesthetized with pentobarbital sodium, and placed on a 32 degree (Celsius) heated table. Ten minutes later histamine (50 micoliter, 3 mg/ml) was injected in the right hind paw and 20 minutes hereafter the paw swelling was determined by water plethysmography (Ugo Basile). Test compounds were administered intraperitoneally at 15 minutes before the anaesthetics.
Values for inhibition of histamine induced oedema response for some representative compounds are recorded in table 1.

Structure (SMILES)	% Oedema inhibition
Cl.Cl.O=C(O)c1cccnc1N1CCN(CCC=C2c3cc(Cl)ccc3OCOc3ccc(Cl)cc32)CC1 [Example 2, 2-(4-(3-(2,10-Dichloro-12H-dibenzo[d,g][1,3]dioxocin-12-ylidene)-1-propyl)-piperazin-1-yl)-3-pyridinecarboxylic acid dihydrochloride]	24%
Cl.O=C(O)c1cccc(N2CCN(CCCN3c4ccccc4CCc4ccccc43)CC2)n1 [Example 8, 6-(4-(3-(10,11-Dihydro-5H-dibenz[b,f]azepin-5-yl)-1-propyl)-1-piperazinyl)-2-pyridinecarboxylic acid hydrochloride]	61%
